{
  "source": "patent US20260258368A1",
  "about": "“METABOLIC SELECTION FOR GLYCOGEN-STORING CELLS IN VITRO” (The Board of Trustees of the Leland Stanford Junior …, priority 2023, published 2026)",
  "assay_in_all_cases": "Poly(I:C) treatment, interferon-stimulated gene expression (qPCR, RNA-seq)",
  "conditions_in_all_cases": "50 μg/mL poly(I:C), 1 day",
  "key": {"[1]": {"test_system": "HuH7 liver cancer cells", "format": "cell-based, human", "text": "(§1) RNA extraction and bulk-population RNA-seq. Cells were lysed using Zymo RNA lysis buffer and total RNA was extracted from cells using the Zymo Quick RNA kit per the manufacturer's instructions. High-quality RNA with RNA integrity number (RIN)>7 was used for library construction. For each cell-type, we included 2-3 technical replicates, generally defined as different wells of the same cell-type generated in the same differentiation experiment. In one experiment, 46 RNA-seq libraries were multiplexed and then sequenced on 2 lanes of the Illumina NovaSeq 6000 S4 sequencer by Novogene to generate 150-bp paired-end reads. In a second experiment, 36 RNA-seq libraries were multiplexed and then sequenced on 1 lane of the NovaS4 sequencer by Novogene to generate 150-bp paired-end reads.\n(§2) Poly(I:C) treatment. HepG2 cells, HuH7 cells, metabolically-selected H1 hPSC-and H7 hPSC-derived hepatocytes, and primary human hepatocytes (Lonza and Gibco) were thawed in a 37° C. water bath for 3 minutes. After thawing, HepG2, HuH7, and hPSC-derived hepatocytes were quenched in warm DMEM/F12 to dilute the cryopreservation solution. After thawing, primary human hepatocytes, obtained from either Lonza or Gibco, were respectively quenched in MCHT50 and CHRM to dilute the cryopreservation solution. Thawed cells were centrifuged at 1500 rpm for 5 mins and the supernatant was discarded, leaving the cell pellets. The cell pellets were resuspended in the aforementioned hepatocyte maintenance media (Lonza hepatocyte culture medium supplemented with 10 μM Dexamethasone, 10 μM Forskolin, 2 μM RO4929097, 200 μg/ml AA2P, 10 μg/ml Insulin, and 1 μM Thiazovivin [DFRAIT]). For each cell-type, ~400,000 cells were plated per well of 24-well plate that had been coated with collagen 1 (Corning Biocoat). For hPSC-derived hepatocytes, the collagen 1-coated wells were briefly treated with Geltrex prior to plating cells. The media was replenished every day for 2 days and on the third day, hepatocyte maintenance media+ DFRAIT+50 μg/ml poly(I:C) was added for 24 hours. Cells were then lysed with RNA lysis buffer (Zymo) and processed with an RNA extraction kit (Zymo) to extract RNA for qPCR and RNA-seq."}, "[2]": {"test_system": "hPSC-derived hepatocytes (H1 and H7 hPSC lines)", "format": "cell-based, human", "text": "as §1, §2"}, "[3]": {"test_system": "HepG2 liver cancer cells", "format": "cell-based, human", "text": "as §1, §2"}, "[4]": {"test_system": "primary adult human hepatocytes (Lonza, Gibco)", "format": "cell-based", "text": "as §1\nPoly(I:C) treatment. HepG2 cells, HuH7 cells, metabolically-selected H1 hPSC-and H7 hPSC-derived hepatocytes, and primary human hepatocytes (Lonza and Gibco) were thawed in a 37° C. water bath for 3 minutes. After thawing, HepG2, HuH7, and hPSC-derived hepatocytes were quenched in warm DMEM/F12 to dilute the cryopreservation solution. After thawing, primary human hepatocytes, obtained from either Lonza or Gibco, were respectively quenched in MCHT50 and CHRM to dilute the cryopreservation solution. Thawed cells were centrifuged at 1500 rpm for 5 mins and the supernatant was discarded, leaving the cell pellets. […]"}},
  "data": [
    {"substance": "poly(I:C)", "values": [
      {"measurement": "ISG and inflammatory cytokine expression change (RNA-seq)", "setting": "[1]", "value": "minimal changes"},
      {"measurement": "upregulation of interferon-stimulated genes (qPCR)", "setting": "[1]", "value": "largely failed to upregulate"},
      {"measurement": "ISG and inflammatory cytokine expression change (RNA-seq)", "setting": "[2]", "value": "significant ISG and inflammatory cytokine upregulation"},
      {"measurement": "induction of interferon-stimulated genes MX1, VIPERIN, IFIT1, IFIT2, IFIT3, OAS1, OASL, ISG15 (qPCR)", "setting": "[2]; H1- and H7-derived hepatocytes", "value": "strongly induced"},
      {"measurement": "ISG and inflammatory cytokine expression change (RNA-seq)", "setting": "[3]", "value": "minimal changes"},
      {"measurement": "upregulation of interferon-stimulated genes (qPCR)", "setting": "[3]", "value": "largely failed to upregulate"},
      {"measurement": "ISG and inflammatory cytokine expression change (RNA-seq)", "setting": "[4]", "value": "significant ISG and inflammatory cytokine upregulation"},
      {"measurement": "upregulation of interferon-stimulated genes (qPCR)", "setting": "[4]; two hepatocyte sources", "value": "upregulated ISGs"}
    ]}
  ]
}
